Test results reported in ChEMBL document CHEMBL5346978, “Exploration of Tetrahydroisoquinoline- and Benzo[c]azepine-Based Sphingosine 1-Phosphate Receptor 1 Agonists for the Treatment of Multiple Sclerosis” (J Med Chem, 2023).
Calls of active or inactive are those of the source. The rule behind the calls is not given here.

Key:
[1] = target: T1, Sphingosine 1-phosphate receptor 1 (Homo sapiens, UniProt P21453); assay: Agonist activity at S1P1 (unknown origin) expressed in PathHunter CHO-K1 EDG1 beta-arrestin cells assessed as beta-arrestin2 recruitment at 1 uM incubated for 90 mins by chemiluminescence based assay relative to control; format: functional, cell-based; conditions: filed as agonist
T1 sequence (P21453 whole entry): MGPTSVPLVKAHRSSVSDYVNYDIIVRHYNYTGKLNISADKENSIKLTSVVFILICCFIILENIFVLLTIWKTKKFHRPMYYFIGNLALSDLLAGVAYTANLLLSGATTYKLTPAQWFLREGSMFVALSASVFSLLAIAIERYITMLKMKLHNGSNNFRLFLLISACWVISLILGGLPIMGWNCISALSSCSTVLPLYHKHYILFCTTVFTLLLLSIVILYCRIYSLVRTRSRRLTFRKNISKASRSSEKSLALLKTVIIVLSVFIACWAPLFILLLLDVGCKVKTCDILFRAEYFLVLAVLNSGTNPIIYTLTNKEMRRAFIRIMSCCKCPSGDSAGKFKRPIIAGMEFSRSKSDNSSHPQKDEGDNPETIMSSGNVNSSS

CYP3A4 = CYP3A4 (Homo sapiens, UniProt P08684); assay: Inhibition of CYP3A4 in human liver microsomes using midazolam as substrate assessed as residual activity at 10 uM preincubated for 5 mins followed by substrate addition and measured after 15 mins in presence of NADPH by LC-MS/MS analysis; format: ADME, Microsome; conditions: probe midazolam, time 20 min, read-out: Activity
CYP3A4, sequence (P08684 whole entry): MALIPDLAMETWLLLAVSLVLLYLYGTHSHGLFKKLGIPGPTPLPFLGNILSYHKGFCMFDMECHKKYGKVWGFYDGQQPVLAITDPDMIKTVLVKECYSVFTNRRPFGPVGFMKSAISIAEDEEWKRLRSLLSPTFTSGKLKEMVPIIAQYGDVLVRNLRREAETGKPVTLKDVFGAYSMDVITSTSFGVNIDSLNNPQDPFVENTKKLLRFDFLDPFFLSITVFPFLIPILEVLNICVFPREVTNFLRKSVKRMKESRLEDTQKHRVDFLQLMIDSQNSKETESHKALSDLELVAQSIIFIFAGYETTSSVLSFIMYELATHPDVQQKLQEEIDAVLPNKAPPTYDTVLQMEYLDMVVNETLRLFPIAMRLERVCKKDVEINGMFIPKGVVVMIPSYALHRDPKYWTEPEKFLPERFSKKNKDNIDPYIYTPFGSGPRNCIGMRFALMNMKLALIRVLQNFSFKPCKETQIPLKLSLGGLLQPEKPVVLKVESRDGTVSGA

[2] = Microsomal stability in mouse liver microsomes assessed as parent compound remaining preincubated for 5 mins followed by NADPH addition measured after 60 mins by LC-MS/MS analysis; format: ADME, Microsome; conditions: time 65 min, read-out: Stability
[3] = Microsomal stability in rat liver microsomes assessed as parent compound remaining preincubated for 5 mins followed by NADPH addition measured after 60 mins by LC-MS/MS analysis; format: ADME, Microsome; conditions: time 65 min, read-out: Stability
CYP2C9 = CYP2C9 (Homo sapiens, UniProt P11712); assay: Inhibition of CYP2C9 in human liver microsomes using diclofenac as substrate assessed as residual activity at 10 uM preincubated for 5 mins followed by substrate addition and measured after 15 mins in presence of NADPH by LC-MS/MS analysis; format: ADME, Microsome; conditions: probe diclofenac, time 20 min, read-out: Activity
CYP2C9, sequence (P11712 whole entry): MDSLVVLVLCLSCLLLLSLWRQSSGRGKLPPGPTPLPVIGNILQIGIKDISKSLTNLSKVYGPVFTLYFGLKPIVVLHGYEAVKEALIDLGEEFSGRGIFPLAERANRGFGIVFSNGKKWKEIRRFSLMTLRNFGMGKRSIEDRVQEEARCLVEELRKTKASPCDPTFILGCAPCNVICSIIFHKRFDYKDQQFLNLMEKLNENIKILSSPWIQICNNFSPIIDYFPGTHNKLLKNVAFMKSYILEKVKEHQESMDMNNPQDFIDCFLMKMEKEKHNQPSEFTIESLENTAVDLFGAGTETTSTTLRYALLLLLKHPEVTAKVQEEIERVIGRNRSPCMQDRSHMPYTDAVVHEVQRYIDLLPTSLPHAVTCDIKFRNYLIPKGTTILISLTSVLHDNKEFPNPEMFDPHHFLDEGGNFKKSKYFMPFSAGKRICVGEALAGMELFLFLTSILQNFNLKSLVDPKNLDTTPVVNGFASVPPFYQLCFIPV

CYP2D6 = CYP2D6 (Homo sapiens, UniProt P10635); assay: Inhibition of CYP2D6 in human liver microsomes using dextromethorphan as substrate assessed as residual activity at 10 uM preincubated for 5 mins followed by substrate addition and measured after 15 mins in presence of NADPH by LC-MS/MS analysis; format: ADME, Microsome; conditions: probe dextromethorphan, time 20 min, read-out: Activity
CYP2D6, sequence (P10635 whole entry): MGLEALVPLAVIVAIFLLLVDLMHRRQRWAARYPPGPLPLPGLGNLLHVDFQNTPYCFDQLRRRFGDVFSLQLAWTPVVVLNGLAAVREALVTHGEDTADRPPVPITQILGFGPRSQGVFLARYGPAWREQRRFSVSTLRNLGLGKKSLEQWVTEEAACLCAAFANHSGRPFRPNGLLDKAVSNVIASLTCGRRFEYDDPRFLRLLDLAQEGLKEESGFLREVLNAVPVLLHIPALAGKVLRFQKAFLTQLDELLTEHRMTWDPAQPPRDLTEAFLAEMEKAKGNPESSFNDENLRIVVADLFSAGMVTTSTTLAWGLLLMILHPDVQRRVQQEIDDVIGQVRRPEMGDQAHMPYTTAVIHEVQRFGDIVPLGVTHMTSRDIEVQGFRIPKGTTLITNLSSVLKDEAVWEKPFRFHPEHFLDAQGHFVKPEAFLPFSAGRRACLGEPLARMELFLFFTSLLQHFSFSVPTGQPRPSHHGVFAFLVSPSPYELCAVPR

[4] = target: T1, Sphingosine 1-phosphate receptor 1; assay: Agonist activity at S1P1 (unknown origin) expressed in PathHunter CHO-K1 EDG1 beta-arrestin cells assessed as beta-arrestin2 recruitment incubated for 90 mins by chemiluminescence based assay; format: functional, cell-based
[5] = Microsomal stability in human liver microsomes assessed as parent compound remaining preincubated for 5 mins followed by NADPH addition measured after 60 mins by LC-MS/MS analysis; format: ADME, Microsome; conditions: time 65 min, read-out: Stability
CYP1A2 = target: T2, CYP1A2 (Homo sapiens, UniProt P05177); assay: Inhibition of CYP1A2 in human liver microsomes using phenacetin as substrate assessed as residual activity at 10 uM preincubated for 5 mins followed by substrate addition and measured after 15 mins in presence of NADPH by LC-MS/MS analysis; format: ADME, Microsome; conditions: probe phenacetin, time 20 min, read-out: Activity
T2 sequence (P05177 whole entry): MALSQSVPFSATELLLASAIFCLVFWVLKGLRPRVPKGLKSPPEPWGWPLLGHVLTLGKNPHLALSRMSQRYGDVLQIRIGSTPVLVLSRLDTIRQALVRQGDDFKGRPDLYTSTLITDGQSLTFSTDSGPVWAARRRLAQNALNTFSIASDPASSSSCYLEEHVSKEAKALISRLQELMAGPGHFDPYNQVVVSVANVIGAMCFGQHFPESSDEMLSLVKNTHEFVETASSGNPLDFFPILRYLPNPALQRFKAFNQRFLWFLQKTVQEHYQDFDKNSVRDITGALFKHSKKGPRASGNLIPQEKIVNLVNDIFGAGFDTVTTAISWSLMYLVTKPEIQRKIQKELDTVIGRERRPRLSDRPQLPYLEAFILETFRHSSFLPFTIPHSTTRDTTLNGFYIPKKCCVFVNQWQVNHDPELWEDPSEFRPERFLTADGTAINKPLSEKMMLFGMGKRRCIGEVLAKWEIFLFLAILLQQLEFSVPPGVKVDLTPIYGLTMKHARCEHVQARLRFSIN

[6] = target: T1, Sphingosine 1-phosphate receptor 1; assay: Agonist activity at S1P1 (unknown origin) expressed in human HEK293/Galpha15 cells assessed as Ca2+ activation at 1 uM measured for 2 hrs by FLIPR analysis relative to control; format: functional, cell-based
[7] = Half life in ICR mouse at 1 mg/kg, iv measured at 0.25 to 12 hrs by LC-MS/MS analysis; format: ADME, organism-based; conditions: in vivo, time 0.25-12 hrs
[8] = AUClast in ICR mouse at 10 mg/kg, po measured at 0.25 to 12 hrs by LC-MS/MS analysis; format: ADME, organism-based; set-up: time 0.25-12 hrs, dose 10 mg/kg, route po; conditions: in vivo
[9] = Observed MRT (infinitive) in ICR mouse at 10 mg/kg, po measured at 0.25 to 12 hrs by LC-MS/MS analysis; format: ADME, organism-based; conditions: in vivo, time 0.25-12 hrs
[10] = Oral bioavailability in ICR mouse at 10 mg/kg measured at 0.25 to 12 hrs by LC-MS/MS analysis; format: ADME, organism-based; conditions: in vivo, time 0.25-12 hrs
[11] = Observed volume of distribution at steady state in ICR mouse at 1 mg/kg, iv measured at 0.25 to 12 hrs by LC-MS/MS analysis; format: ADME, organism-based; conditions: in vivo, time 0.25-12 hrs, read-out: Vdss
[12] = Microsomal stability in mouse liver microsomes assessed as parent compound remaining preincubated for 5 mins followed by NADPH addition measured after 30 mins by LC-MS/MS analysis; format: ADME, Microsome; conditions: time 35 min, read-out: Stability
[13] = Microsomal stability in rat liver microsomes assessed as parent compound remaining preincubated for 5 mins followed by NADPH addition measured after 30 mins by LC-MS/MS analysis; format: ADME, Microsome; conditions: time 35 min, read-out: Stability
[14] = Observed clearance in ICR mouse at 1 mg/kg, iv measured at 0.25 to 12 hrs by LC-MS/MS analysis; format: ADME, organism-based; conditions: in vivo, time 0.25-12 hrs
[15] = Microsomal stability in human liver microsomes assessed as parent compound remaining preincubated for 5 mins followed by NADPH addition measured after 30 mins by LC-MS/MS analysis; format: ADME, Microsome; conditions: time 35 min, read-out: Stability
Mus musculus = assay: In vivo agonist activity at S1P1 in mouse assessed as reduction in peripheral lymphocyte count at 10 mg/kg, po measured at 3 hrs; format: functional, organism-based
[16] = Half life in ICR mouse at 10 mg/kg, po measured at 0.25 to 12 hrs by LC-MS/MS analysis; format: ADME, organism-based; conditions: in vivo, time 0.25-12 hrs
[17] = AUClast in ICR mouse at 1 mg/kg, iv measured at 0.25 to 12 hrs by LC-MS/MS analysis; format: ADME, organism-based; set-up: time lower 0.25 hrs, dose 1 mg/kg, time upper 12 hrs, route iv; conditions: in vivo
[18] = target: T1, Sphingosine 1-phosphate receptor 1; assay: Agonist activity at S1P1 (unknown origin) expressed in human HEK293/Galpha15 cells assessed as Ca2+ activation measured for 2 hrs by FLIPR analysis; format: functional, cell-based
[19] = Observed MRT (infinitive) in ICR mouse at 1 mg/kg, iv measured at 0.25 to 12 hrs by LC-MS/MS analysis; format: ADME, organism-based; conditions: in vivo, time 0.25-12 hrs
[20] = Tmax in ICR mouse at 10 mg/kg, po measured at 0.25 to 12 hrs by LC-MS/MS analysis; format: ADME, organism-based; conditions: in vivo, time 0.25-12 hrs
[21] = Cmax in ICR mouse at 10 mg/kg, po measured at 0.25 to 12 hrs by LC-MS/MS analysis; format: ADME, organism-based; set-up: time upper 12 hrs, dose 10 mg/kg, time lower 0.25 hrs, route po; conditions: in vivo

| Structure (SMILES) | Activity [1] [%] | activity at 0.25 h, 10 µM (CYP3A4) [%] | remaining at 1 h [2] [%] | remaining at 1 h [3] [%] | activity at 0.25 h, 10 µM (CYP2C9) [%] | activity at 0.25 h, 10 µM (CYP2D6) [%] | EC50 [4] [nM] | remaining at 1 h [5] [%] | activity at 0.25 h, 10 µM (CYP1A2) [%] | Activity [6] [%] | remaining at 0.5 h [12] [%] | remaining at 0.5 h [13] [%] | remaining at 0.5 h [15] [%] | EC50 [18] [nM] | Activity ([6]; filed as agonist) [%] | also measured |
| --- | --- | --- | --- | --- | --- | --- | --- | --- | --- | --- | --- | --- | --- | --- | --- | --- |
| CC(C)Oc1ccc(COc2ccc3c(c2)CCN(C(=O)CCNS(C)(=O)=O)C3)cc1C#N | 122 |  |  |  |  |  | 252 |  |  | 23 | 42.8 | 41.7 | 29.7 |  |  |  |
| CC(C)Oc1ccc(COc2ccc3c(c2)CCN(CCC(=O)O)C3)cc1C#N | 98 | 90.2 |  |  | 92.2 | 95.4 | 193 |  | 85.1 |  | 98.7 |  | 99 | 247 | 82 |  |
| CC(C)Oc1ccc(COc2ccc3c(c2)CCN(S(=O)(=O)CCC(=O)N(C)C)C3)cc1C#N | 98 |  |  |  |  |  | 453 |  |  | 4 | 14.1 | 18.7 | 18.9 |  |  |  |
| CC(C)Oc1ccc(COc2ccc3c(c2)CCN(C(=O)CCC(=O)N(C)C)C3)cc1C#N | 76 |  |  |  |  |  | 567 |  |  | 25 | 11.4 | 13.9 | 24.4 |  |  |  |
| CNC(=O)CCS(=O)(=O)N1CCc2cc(OCc3ccc(OC(C)C)c(C#N)c3)ccc2C1 | 107 |  |  |  |  |  | 362 |  |  | 4 | 15.8 | 13.4 | 21.9 |  |  |  |
| CC(C)Oc1ccc(COc2ccc3c(c2)CCN(C(=O)CCC(=O)O)C3)cc1C#N | 81 | 26.3 |  |  | 27.6 | 54.9 | 455 |  | 59.7 |  | 100 | 92.1 | 94.3 | 275 | 79 |  |

Second part, led by results:

| Activity [1] [%] | activity at 0.25 h, 10 µM (CYP3A4) [%] | remaining at 1 h [2] [%] | remaining at 1 h [3] [%] | activity at 0.25 h, 10 µM (CYP2C9) [%] | activity at 0.25 h, 10 µM (CYP2D6) [%] | EC50 [4] [nM] | remaining at 1 h [5] [%] | activity at 0.25 h, 10 µM (CYP1A2) [%] | Activity [6] [%] | remaining at 0.5 h [12] [%] | remaining at 0.5 h [13] [%] | remaining at 0.5 h [15] [%] | EC50 [18] [nM] | Activity ([6]; filed as agonist) [%] | Structure (SMILES) | also measured |
| --- | --- | --- | --- | --- | --- | --- | --- | --- | --- | --- | --- | --- | --- | --- | --- | --- |
| 77 | 92 | 89.7 | 90.8 | 78.4 | 87.6 | 795 | 100 | 93.2 | 8 |  |  |  |  |  | CC(C)Oc1ccc(COc2ccc3c(c2)CCN(S(=O)(=O)CCC(=O)O)C3C)cc1C#N (stereo not drawn) |  |
| 125 | 87.5 |  |  | 75.4 | 91.9 | 50 |  | 80.4 |  | 100 | 93.8 | 90.2 | 14 | 100 | CC(C)Oc1ccc(COc2ccc3c(c2)CCN(S(=O)(=O)CCC(=O)O)C3)cc1C#N | half-life [7]: 2.4 h; AUC(0-t) [8]: 4290 ng·h/mL; MRT inf [9]: 1.9 h; bioavailability [10]: 46.4%; Vd [11]: 1.1 L/kg; clearance [14]: 18.2 mL/min/kg; Activity (Mus musculus): Active; half-life [16]: 1.3 h; AUC(0-t) [17]: 925 ng·h/mL; MRT inf [19]: 1 h; Tmax [20]: 0.5 h; Cmax [21]: 2290 ng/mL |
| 116 | 84.7 | 10.7 | 13.1 | 53.7 | 79.1 | 11.1 | 15.2 | 85.1 |  |  |  |  | 618 | 68 | CC(C)Oc1ccc(COc2ccc3c(c2)CCCN(S(=O)(=O)CCO)C3)cc1C#N |  |
| 109 | 68.8 | 90.5 | 92.9 | 70.7 | 73.6 | 28.6 |  | 71.2 |  |  |  |  | 68 | 83 | CC(C)Oc1ccc(COc2ccc3c(c2)OCCN(S(=O)(=O)CCC(=O)O)C3)cc1C#N |  |
| 92 | 92.7 | 9.3 | 6.8 | 57.2 | 75.6 | 73.7 | 17.5 | 70.2 |  |  |  |  |  | 46 | CC(C)Oc1ccc(COc2ccc3c(c2)OCCN(S(=O)(=O)CCCO)C3)cc1C#N |  |
| 82 | 85.4 |  |  | 80.1 | 85.3 | 289 |  | 84.5 |  | 94.2 | 98.1 | 96 | 226 | 82 | CC(C)Oc1ccc(COc2ccc3c(n2)CCN(S(=O)(=O)CCC(=O)O)C3)cc1C#N |  |
| 91 | 84.6 | 87.7 | 99.6 | 87 | 91.1 | 50.5 | 97.1 | 88.1 |  |  |  |  | 67 | 104 | CC(C)Oc1ccc(COc2ccc3c(c2)OCCN(S(=O)(=O)CC(=O)O)C3)cc1C#N |  |
| 94 | 87.7 | 85.1 | 73.6 | 86.1 | 89.4 | 25.3 | 90.9 | 86.9 |  |  |  |  | 46.3 | 94 | CC(C)Oc1ccc(COc2ccc3c(c2)CCCN(S(=O)(=O)CC(=O)O)C3)cc1C#N |  |
| 81 | 82.4 | 8.7 | 113 | 67.7 | 89.4 | 94.7 | 16.2 | 100 |  |  |  |  | 502 | 69 | CC(C)Oc1ccc(COc2ccc3c(c2)CCCN(S(=O)(=O)CCCO)C3)cc1C#N |  |
